Test results: ChEMBL document CHEMBL1143423, “In vivo efficacy of moxifloxacin compared with cloxacillin and vancomycin in a Staphylococcus aureus rabbit arthritis experimental model” (Antimicrob Agents Chemother, 2007)
In brackets after ≈: the same amount, converted by molar mass.

What was measured:
[1] = test system: Staphylococcus aureus; test: Antibacterial activity against methicillin-sensitive Staphylococcus aureus by broth microdilution technique; format: functional
[2] = test system: Staphylococcus aureus; test: Antibacterial activity against methicillin-sensitive Staphylococcus aureus infected rabbit arthritis model assessed as change in bacterial load per gram of synovial fluid at 50 mg/kg, im administered thrice a day after 7 days by broth microdilution technique; format: functional; conditions: route intramuscular
[3] = Drug level in serum of Staphylococcus aureus infected rabbit arthritis model at 50 mg/kg, im administered thrice a day; format: ADME, organism-based, Oryctolagus cuniculus; parameters: dose 50 mg/kg, route intramuscular; conditions: in vivo
[4] = test system: Staphylococcus aureus; test: microbe, parasite or virus in culture
Description: Antibacterial activity against methicillin-resistant Staphylococcus aureus by broth microdilution technique

[5] = Cmax in human serum at 400 mg, po administered as single dose after 1 hr; format: ADME, organism-based; parameters: dose 400 mg, route oral
[6] = AUC (0 to 24 hrs) in human serum at 400 mg, po administered as single dose; format: ADME, organism-based; parameters: time < 24 hr, dose 400 mg, route oral
[7] = Cmax in Staphylococcus aureus infected rabbit arthritis model at 45 mg/kg, po; format: ADME, organism-based, Oryctolagus cuniculus; parameters: dose 45 mg/kg, route oral; conditions: in vivo
[8] = AUC (0 to 24 hrs) in Staphylococcus aureus infected rabbit arthritis model at 45 mg/kg, po; format: ADME, organism-based, Oryctolagus cuniculus; parameters: time < 24 hr, dose 45 mg/kg, route oral; conditions: in vivo
[9] = test system: Staphylococcus aureus; test: Antibacterial activity against ciprofloxacin and methicillin-resistant Staphylococcus aureus
[10] = Cmax in human serum at 400 mg, po administered as single dose; format: ADME, organism-based; conditions: read-out: tCmax
[11] = Drug level in serum of Staphylococcus aureus infected rabbit arthritis model at 100 mg/kg, iv administered daily; format: ADME, organism-based, Oryctolagus cuniculus; parameters: dose 100 mg/kg, route intravenous; conditions: in vivo

Structure (SMILES)	MIC [1] [µg/mL]	deltalog10CFU [2]	Drug uptake [3] [mg/L]	MIC [4] [µg/mL]	Cmax [5] [ng/mL]	AUC(0-t) at 24 h [6] [ng·h/mL]	Cmax [7] [ng/mL]	AUC(0-t) at 24 h [8] [ng·h/mL]	MIC [9] [µg/mL]	Tmax [10] [h]	Drug uptake [11] [mg/L]
Cc1onc(-c2ccccc2Cl)c1C(=O)N[C@@H]1C(=O)N2[C@@H]1SC(C)(C)[C@@H]2C(=O)O [CLOXACILLIN]	0.5 (≈ 1.15 µM)	4.6	0.8	4 (≈ 9.18 µM)	–	–	–	–	–	–	–
COc1c(N2C[C@@H]3CCCN[C@@H]3C2)c(F)cc2c(=O)c(C(=O)O)cn(C3CC3)c12 [MOXIFLOXACIN]	0.032 (≈ 0.0797 µM)	–	–	1 (≈ 2.49 µM)	2500	35000	2850	37500	0.25 (≈ 0.623 µM)	1	–
CN[C@H](CC(C)C)C(=O)N[C@H]1C(=O)N[C@@H](CC(N)=O)C(=O)N[C@H]2C(=O)N[C@H]3C(=O)N[C@H](C(=O)N[C@H](C(=O)O)c4cc(O)cc(O)c4-c4cc3ccc4O)[C@H](O)c3ccc(c(Cl)c3)Oc3cc2cc(c3O[C@@H]2O[C@H](CO)[C@@H](O)[C@H](O)[C@H]2O[C@H]2C[C@](C)(N)[C@H](O)[C@H](C)O2)Oc2ccc(cc2Cl)[C@H]1O [VANCOMYCIN]	0.032 (≈ 0.0221 µM)	–	–	–	–	–	–	–	–	–	26.3
